Reference: PMC8949241, “Design, Synthesis and Biological Evaluation of Neogliptin, a Novel 2-Azabicyclo[2.2.1]heptane-Based Inhibitor of Dipeptidyl Peptidase-4 (DPP-4)” (Pharmaceuticals, 2022)
pIC50: −log10 of the molar value.

Target: T1, recombinant DPP-4 enzyme D4943 (Homo sapiens, UniProt P27487)
T1 construct: purchased Sigma-Aldrich D4943
Test: DPP-4 enzyme inhibition, chromogenic substrate Gly-Pro-pNA, absorbance at 405 nm
Assay type: biochemical
Settings: 37 °C for 30 min, pH 7.6, dilution range 10^−4 to 10^−11 M
Description: The DDP-4 enzyme inhibitory activities of the synthesised compounds were assessed using protocols similar to those described in the literature. For IC50 values determination, inhibitory assays were carried out using recombinant DPP-4 enzyme D4943, chromogenic substrate Gly-Pro-pNA and buffer system (50 mM Tris-HCl, 50 mM NaCl, 0.01% Triton, pH = 7.6). After short incubation (37 °C for 30 min), the absorbance at 405 nm was measured. The procedure was initially optimised using reference compounds. Each inhibitor was analysed in the dilution range from 10^−4 to 10^−11 M. Certified samples of commercial drugs-inhibitors of DPP-4 (vilda-, sita-, alo- and linagliptin) with known IC50 were used as reference compounds. […] We analysed every compound in the dilution range […] (Table 3).
For the inhibitory assays, we used the substrate Gly-Pro-p-nitroanilide (H-Gly-Pro-pNA HCl, G0513) and recombinant dipeptidyl peptidase-4 enzyme (D4943) that were purchased from Sigma-Aldrich (St. Louis, MO, USA). […] The mixtures were incubated at 37 °C for 30 min, and the absorbance at 405 nm was measured using the microplate reader ChemWell (Awareness Technology Inc., Palm City, FL, USA). DPP-4 inhibitory activities for each test compound were calculated. […]

T1 sequence (P27487 whole entry): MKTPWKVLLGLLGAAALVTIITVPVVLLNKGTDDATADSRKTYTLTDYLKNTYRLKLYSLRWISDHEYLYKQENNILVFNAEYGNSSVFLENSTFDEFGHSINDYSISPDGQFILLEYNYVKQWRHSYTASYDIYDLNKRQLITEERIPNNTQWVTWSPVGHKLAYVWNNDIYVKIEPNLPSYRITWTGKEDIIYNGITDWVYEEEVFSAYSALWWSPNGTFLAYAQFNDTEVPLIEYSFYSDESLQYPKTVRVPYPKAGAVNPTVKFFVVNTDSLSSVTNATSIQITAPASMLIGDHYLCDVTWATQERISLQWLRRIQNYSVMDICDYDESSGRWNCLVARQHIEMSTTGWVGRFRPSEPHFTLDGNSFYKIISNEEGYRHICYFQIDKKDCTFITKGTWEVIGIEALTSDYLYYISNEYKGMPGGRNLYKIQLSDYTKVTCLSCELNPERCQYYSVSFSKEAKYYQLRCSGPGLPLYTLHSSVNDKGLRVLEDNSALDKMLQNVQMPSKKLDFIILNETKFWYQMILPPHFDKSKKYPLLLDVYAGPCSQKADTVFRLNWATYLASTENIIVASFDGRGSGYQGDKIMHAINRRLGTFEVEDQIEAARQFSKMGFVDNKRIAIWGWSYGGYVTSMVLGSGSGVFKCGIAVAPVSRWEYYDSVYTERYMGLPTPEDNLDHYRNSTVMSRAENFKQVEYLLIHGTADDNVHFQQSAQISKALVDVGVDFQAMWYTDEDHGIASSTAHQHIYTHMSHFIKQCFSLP

pIC50: < 6.00
Substance: ( 3R,S)-2-[(3R)-3-Amino-4-(2,4,5-trifluorophenyl)butanoyl]-endo-2-azabicyclo[2.2.1]hepnane-3-carbonitrile p-toluenesulpfonate [12c (S-endo): 12d (R-endo), 1:1 mixture]
